Laboratory results as given in ChEMBL document CHEMBL1201862, “PubChem BioAssay data set” (2004).
Calls of active or inactive are those of the source.

Columns and labels:
Paired box protein Pax-8 = Paired box protein Pax-8 (Homo sapiens, UniProt Q06710); assay: PAX8 transcriptional activity inhibition in RMG-I – RMG-I cells, luciferase, cherry-pick, dose response (AID 687027); assay type: functional, cell-based;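 further: luciferase reporter driven by Pax8 target thyroperoxidase promoter measured by SteadyGlo luminescence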
[1] = OVCAR8 cell viability loss – plate reader, dry powder samples, PAX8 project, dose response (AID 743197); assay type: functional, cell-based; conditions: OVCAR-8
[2] = A2780 cell killing – plate reader, dry powder samples, cytotoxicity control, dose response (AID 743046); assay type: functional, cell-based
[3] = viability loss in LCL cells – cell-based, plate reader, dry powder, set 2, cytotoxicity control, dose response (AID 624367); assay type: functional
[4] = OVCAR-3 cell viability loss – plate reader, dry powder samples, PAX8 inhibitor project, dose response (AID 743044); assay type: functional, cell-based
[5] = IGROV1 cell killing – plate reader, dry powder samples, PAX8 inhibitor project, dose response (AID 743043); assay type: functional, cell-based; conditions: IGROV-1
[6] = toxicity toward immortalized ovarian surface epithelium – cell-based, plate reader, dry powder samples, cytotoxicity control for PAX8 inhibitor project, dose response (AID 743045); assay type: functional
cells [7] = assay type: functional, cell-based
cells [8] = assay type: functional, cell-based; remark: listed apart in the source
[9] = target: T1, Beta-2 adrenergic receptor (Homo sapiens, UniProt P07550); assay: ADRB2 activation measured by internalization – cell-based, FAP fluorogen, flow cytometry, cherry pick 1, dose response (AID 588763); assay type: functional
[10] = target: T1, Beta-2 adrenergic receptor; assay: Dose response for HTS for Beta-2AR agonists via FAP method from Powderset1.; assay type: functional
[11] = Fluorescence-based cell-based high throughput dose response assay for inhibitors of the interaction of nucleotide-binding oligomerization domain containing 2 (NOD2) and the receptor-interacting serine-threonine kinase 2 (RIPK2).; assay type: functional; conditions: Homo sapiens
[12] = target: T2, Sphingosine 1-phosphate receptor 4 (Homo sapiens, UniProt O95977); assay: Fluorescence dose response cell-based high throughput screening assay for antagonists of the Sphingosine 1-Phosphate Receptor 4 (S1P4). [Related pubchem assays: 1524 (Confirmation in triplicates.), 1510 (Primary screen.)]; assay type: functional
T2 sequence (O95977 whole entry): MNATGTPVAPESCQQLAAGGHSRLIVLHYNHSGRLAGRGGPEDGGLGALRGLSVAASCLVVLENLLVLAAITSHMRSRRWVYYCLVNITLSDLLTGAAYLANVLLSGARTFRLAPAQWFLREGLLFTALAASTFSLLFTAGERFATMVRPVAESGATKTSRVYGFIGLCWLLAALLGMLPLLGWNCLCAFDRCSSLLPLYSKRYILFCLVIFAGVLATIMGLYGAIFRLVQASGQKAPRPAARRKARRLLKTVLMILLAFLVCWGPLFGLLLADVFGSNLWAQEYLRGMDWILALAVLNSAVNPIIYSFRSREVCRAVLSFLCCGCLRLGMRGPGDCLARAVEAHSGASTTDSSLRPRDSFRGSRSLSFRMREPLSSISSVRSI

[13] = microbe, parasite or virus in culture; assay type: functional; conditions: Mycobacterium tuberculosis
[14] = target: Heat shock protein HSP 90-alpha (Homo sapiens, UniProt P07900); assay type: functional, organism-based
[15] = target: T3, Serine/threonine-protein phosphatase (Candida dubliniensis (strain CD36 / CBS 7987 / NCPF 3949 / NRRLY-17841) (Yeast), UniProt B9W6M3); assay: blockers of CaCl2-induced CDRE-lacZ signaling – S. cerevisiae, luminescence, secondary, dose response (AID 2388); assay type: functional, cell-based;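 further: yeast reporter cells carrying a calcineurin-responsive lacZ construct stimulated with calcium chloride; luminescent beta-galactosidase reporter signal in whole cells rather than isolated phosphatase activity; potency for inhibition where a drop in reporter signal means calcineurin blockade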
T3 sequence (B9W6M3 whole entry): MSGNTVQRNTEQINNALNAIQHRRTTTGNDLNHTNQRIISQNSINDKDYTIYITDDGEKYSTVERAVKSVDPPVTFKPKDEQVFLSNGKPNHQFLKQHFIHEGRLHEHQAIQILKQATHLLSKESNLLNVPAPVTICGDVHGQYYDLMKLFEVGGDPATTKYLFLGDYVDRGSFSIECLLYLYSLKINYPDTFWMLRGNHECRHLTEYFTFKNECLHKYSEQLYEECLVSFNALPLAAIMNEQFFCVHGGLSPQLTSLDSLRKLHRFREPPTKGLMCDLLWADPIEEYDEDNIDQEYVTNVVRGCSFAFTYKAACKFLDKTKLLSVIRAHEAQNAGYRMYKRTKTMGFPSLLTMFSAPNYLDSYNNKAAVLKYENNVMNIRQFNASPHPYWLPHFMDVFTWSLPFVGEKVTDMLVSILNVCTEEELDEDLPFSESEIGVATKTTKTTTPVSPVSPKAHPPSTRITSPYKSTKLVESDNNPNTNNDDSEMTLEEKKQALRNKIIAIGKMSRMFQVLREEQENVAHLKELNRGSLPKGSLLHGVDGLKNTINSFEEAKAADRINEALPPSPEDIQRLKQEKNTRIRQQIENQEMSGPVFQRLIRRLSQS

[16] = target: ATP-dependent molecular chaperone HSP82 (Candida albicans (strain WO-1) (Yeast), UniProt C4YTQ8); assay: steroid-induced GRE reporter decrease in yeast – S. cerevisiae, luminescence, Hsp90 inhibitor project, dose response (AID 2400); assay type: functional, cell-based;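 further: beta-galactosidase luminescence from glucocorticoid response element reporter as proxy for Hsp90 function; inhibitor potency where signal loss means Hsp90 inhibition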
[17] = target: T3, Serine/threonine-protein phosphatase; assay: Fluorescence Cell-Based Secondary Assay to Identify Inhibitors of Calcineurin. [Related pubchem assays (depositor defined):AID1979, AID2007]; assay type: functional
[18] = NIH-3T3 fibroblast cytotoxicity, dose response, cytotoxicity control, cell-based, fluorescence, Alamar Blue, secondary assay (AID 2327); assay type: functional;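 further: NIH-3T3 mouse fibroblasts cultured with fluconazole at 8 µg/mL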
[19] = target: Neurotensin receptor type 1 (Homo sapiens, UniProt P30989); assay type: functional;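 further: Image-based confirmatory dose-response assay measuring agonist activity at NTR1; NTR1-expressing U2OS osteosarcoma cells imaged for beta-arrestin GFP spot formation; agonist potency where compounds increase beta-arrestin recruitment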
[20] = target: Sphingosine 1-phosphate receptor 1 (Homo sapiens, UniProt P21453); assay type: functional;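 further: Tango beta-arrestin reporter U2OS cells stimulated with S1P near its EC80; inhibitor potency meaning antagonism of receptor activation by the natural agonist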
[21] = fluconazole-exposed Candida albicans growth modulators – fluorescence, retest, confirmation (AID 2467); assay type: functional, cell-based

T1 sequence (P07550 whole entry): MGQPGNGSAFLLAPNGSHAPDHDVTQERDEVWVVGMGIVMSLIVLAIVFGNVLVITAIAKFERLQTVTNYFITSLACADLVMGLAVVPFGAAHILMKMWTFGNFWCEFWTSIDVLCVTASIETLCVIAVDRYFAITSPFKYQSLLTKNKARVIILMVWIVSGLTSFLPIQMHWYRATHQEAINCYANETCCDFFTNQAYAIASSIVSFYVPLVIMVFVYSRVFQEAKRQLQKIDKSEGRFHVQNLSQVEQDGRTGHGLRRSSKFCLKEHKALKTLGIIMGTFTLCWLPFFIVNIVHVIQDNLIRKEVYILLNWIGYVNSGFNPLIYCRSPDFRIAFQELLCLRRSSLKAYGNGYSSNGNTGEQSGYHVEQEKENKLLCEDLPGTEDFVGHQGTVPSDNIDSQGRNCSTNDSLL
Sphingosine 1-phosphate receptor 1, sequence (P21453 whole entry): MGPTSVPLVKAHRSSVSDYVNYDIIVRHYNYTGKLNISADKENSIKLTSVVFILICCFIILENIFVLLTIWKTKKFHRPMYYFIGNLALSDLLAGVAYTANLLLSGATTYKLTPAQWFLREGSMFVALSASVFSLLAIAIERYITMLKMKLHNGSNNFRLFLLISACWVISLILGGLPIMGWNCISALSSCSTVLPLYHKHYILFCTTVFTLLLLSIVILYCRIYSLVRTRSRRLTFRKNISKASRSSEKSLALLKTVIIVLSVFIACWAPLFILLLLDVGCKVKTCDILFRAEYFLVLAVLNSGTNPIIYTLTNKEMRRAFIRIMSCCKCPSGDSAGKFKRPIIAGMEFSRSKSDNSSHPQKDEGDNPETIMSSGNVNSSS
ATP-dependent molecular chaperone HSP82, sequence (C4YTQ8 whole entry): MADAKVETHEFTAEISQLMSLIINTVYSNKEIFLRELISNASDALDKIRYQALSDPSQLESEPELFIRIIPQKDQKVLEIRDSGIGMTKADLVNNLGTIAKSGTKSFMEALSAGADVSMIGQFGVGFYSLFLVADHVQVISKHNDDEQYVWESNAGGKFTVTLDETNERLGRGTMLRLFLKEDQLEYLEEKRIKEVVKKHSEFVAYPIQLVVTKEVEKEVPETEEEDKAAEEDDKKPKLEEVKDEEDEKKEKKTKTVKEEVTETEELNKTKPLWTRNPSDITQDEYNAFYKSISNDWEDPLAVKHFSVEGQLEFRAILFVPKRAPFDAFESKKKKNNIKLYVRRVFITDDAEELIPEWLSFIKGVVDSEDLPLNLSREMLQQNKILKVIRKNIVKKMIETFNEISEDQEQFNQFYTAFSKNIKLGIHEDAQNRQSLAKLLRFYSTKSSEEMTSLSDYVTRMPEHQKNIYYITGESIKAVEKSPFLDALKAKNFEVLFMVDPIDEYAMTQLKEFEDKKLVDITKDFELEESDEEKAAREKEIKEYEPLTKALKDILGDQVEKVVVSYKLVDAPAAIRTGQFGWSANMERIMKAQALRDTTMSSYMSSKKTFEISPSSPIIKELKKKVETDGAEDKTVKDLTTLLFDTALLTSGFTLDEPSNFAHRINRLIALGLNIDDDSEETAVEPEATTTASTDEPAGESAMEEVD
Paired box protein Pax-8, sequence (Q06710 whole entry): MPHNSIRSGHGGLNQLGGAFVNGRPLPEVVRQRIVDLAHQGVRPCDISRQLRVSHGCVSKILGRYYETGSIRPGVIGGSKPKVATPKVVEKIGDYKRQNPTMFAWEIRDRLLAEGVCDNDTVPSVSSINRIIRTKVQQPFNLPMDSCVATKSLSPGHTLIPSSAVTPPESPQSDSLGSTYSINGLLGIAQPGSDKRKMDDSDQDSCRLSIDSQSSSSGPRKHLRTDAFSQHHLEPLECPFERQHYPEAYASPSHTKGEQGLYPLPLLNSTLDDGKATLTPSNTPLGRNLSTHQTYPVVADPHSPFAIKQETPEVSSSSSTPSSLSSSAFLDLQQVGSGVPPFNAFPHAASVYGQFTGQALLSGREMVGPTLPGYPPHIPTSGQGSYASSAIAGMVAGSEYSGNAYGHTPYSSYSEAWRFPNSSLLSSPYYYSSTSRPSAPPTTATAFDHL
Neurotensin receptor type 1, sequence (P30989 whole entry): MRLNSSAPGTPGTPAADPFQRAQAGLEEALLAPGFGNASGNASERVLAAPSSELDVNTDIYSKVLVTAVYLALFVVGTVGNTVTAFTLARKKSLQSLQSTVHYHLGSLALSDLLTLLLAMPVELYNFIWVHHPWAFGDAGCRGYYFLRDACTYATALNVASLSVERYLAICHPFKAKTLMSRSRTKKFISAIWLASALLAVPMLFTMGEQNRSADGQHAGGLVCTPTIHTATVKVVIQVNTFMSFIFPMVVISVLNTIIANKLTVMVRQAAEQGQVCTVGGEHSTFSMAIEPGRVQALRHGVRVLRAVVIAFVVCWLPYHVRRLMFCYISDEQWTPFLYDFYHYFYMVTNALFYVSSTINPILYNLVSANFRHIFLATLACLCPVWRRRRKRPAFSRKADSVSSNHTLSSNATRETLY

In the case of `O=C(C[C@@H]1C[C@H]2c3cc(NS(=O)(=O)c4ccc(F)cc4)ccc3O[C@H]2[C@@H](CO)O1)NCc1ccc(Oc2ccccc2)cc1`, the AC50 (Paired box protein Pax-8) is reported as 7.32 µM (active), the AC50 [1] is reported as 43.5 µM (active) and the AC50 [2] is reported as 45.6 µM (active). For the same compound, the AbsAC35 [3] was 42.5 µM, the AC50 [4] was 21.5 µM (active) and the AC50 [5] was 44.3 µM (active). The AC50 [6] was 26.7 µM (active).
For `O=C(c1ccc(OC2CCN(Cc3ccc(F)cc3)CC2)cc1)N1CCCC1`, the EC50 (cells [7]) was > 350 µM (not active), the EC50 (cells [8]) was > 350 µM (not active) and the EC50 [9] was 1.6 µM (active). For the same compound, the EC50 [10] was 5.28 µM (active).
In the case of `CCc1ccc2c(c1)/C(=C/C(=O)c1cccs1)C(=O)N2`, the IC50 [11] is reported as 4.53 µM (active), the IC50 [12] is reported as 1.46 µM (active) and the CC50 [13] is reported as 7.23 µM (active). The AC50 [14] was 4.18 µM (active), the EC50 [15] was > 180 µM (inactive) and the EC50 [16] was 1.25 µM (active). The EC50 [17] was 5.99 µM (active), the EC50 [18] was > 150 µM (inactive) and the EC50 [19] was 17.7 µM (active). For the same compound, the IC50 [20] was 20.9 µM (not active) and the EC50 [21] was 6.49 µM (active).
